What was measured:
Experiment in all cases: relative viability (nuclei count vs DMSO), 5 days (fraction); higher = more cells survive
NCI-H2087 = test system: NCI-H2087
Procedure, shortened: (§1)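 Relative viability is defined as nuclei in treated wells over nuclei in vehicle wells. Duplicate plates were run and medians reported. Lung cancer cell lines in 1536-well plates were dosed by pin tool one day after seeding, with one drug or with a fixed anchor-drug dose plus five library-drug doses (not always all listed) in √10 steps, and nuclei were counted after 5 days.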

LOU-NH91 = test system: LOU-NH91
Procedure, shortened: as §1

HCC-827 = test system: HCC-827
Procedure, shortened: as §1

NCI-H661 = test system: NCI-H661
Procedure, shortened: as §1

NCI-H2009 = test system: NCI-H2009
Procedure, shortened: as §1

NCI-H1355 = test system: NCI-H1355
Procedure, shortened: as §1

NCI-H2405 = test system: NCI-H2405
Procedure, shortened: as §1

LC-2-ad = test system: LC-2-ad
Procedure, shortened: as §1

NCI-H647 = test system: NCI-H647
Procedure, shortened: as §1

NCI-H1437 = test system: NCI-H1437
Procedure, shortened: as §1

BEN = test system: BEN
Procedure, shortened: as §1

NCI-H2170 = test system: NCI-H2170
Procedure, shortened: as §1

SK-MES-1 = test system: SK-MES-1
Procedure, shortened: as §1

EKVX = test system: EKVX
Procedure, shortened: as §1

NCI-H1395 = test system: NCI-H1395
Procedure, shortened: as §1

SK-LU-1 = test system: SK-LU-1
Procedure, shortened: as §1

NCI-H2228 = test system: NCI-H2228
Procedure, shortened: as §1

NCI-H596 = test system: NCI-H596
Procedure, shortened: as §1

HCC-366 = test system: HCC-366
Procedure, shortened: as §1

NCI-H1734 = test system: NCI-H1734
Procedure, shortened: as §1

HARA = test system: HARA
Procedure, shortened: as §1

NCI-H1792 = test system: NCI-H1792
Procedure, shortened: as §1

## Oc1nc(-c2ccc(C(F)(F)F)cc2)nc2c1CSCC2 [XAV939] + CS(=O)(=O)CCNCc1ccc(-c2ccc3ncnc(Nc4ccc(OCc5cccc(F)c5)c(Cl)c4)c3c2)o1 [Lapatinib] (partner 2 µM)
NCI-H2087; first compound 0.08 µM
  relative viability: 1.12
NCI-H2087; first compound 0.253 µM
  relative viability: 1.06
NCI-H2087; first compound 0.8 µM
  relative viability: 1.08
NCI-H2087; first compound 2.53 µM
  relative viability: 0.89
LOU-NH91; first compound 0.08 µM
  relative viability: 0.73
LOU-NH91; first compound 0.253 µM
  relative viability: 0.695
LOU-NH91; first compound 0.8 µM
  relative viability: 0.696
LOU-NH91; first compound 2.53 µM
  relative viability: 0.628
HCC-827; first compound 0.08 µM
  relative viability: 0.194
HCC-827; first compound 0.253 µM
  relative viability: 0.178
HCC-827; first compound 0.8 µM
  relative viability: 0.238
HCC-827; first compound 2.53 µM
  relative viability: 0.187
NCI-H661; first compound 0.08 µM
  relative viability: 0.553
NCI-H661; first compound 0.253 µM
  relative viability: 0.482
NCI-H661; first compound 0.8 µM
  relative viability: 0.595
NCI-H661; first compound 2.53 µM
  relative viability: 0.372
NCI-H2009; first compound 0.08 µM
  relative viability: 1.08
NCI-H2009; first compound 0.253 µM
  relative viability: 0.819
NCI-H2009; first compound 0.8 µM
  relative viability: 0.842
NCI-H2009; first compound 2.53 µM
  relative viability: 0.771
NCI-H1355; first compound 0.08 µM
  relative viability: 1.02
NCI-H1355; first compound 0.253 µM
  relative viability: 0.857
NCI-H1355; first compound 0.8 µM
  relative viability: 0.875
NCI-H1355; first compound 2.53 µM
  relative viability: 0.729
NCI-H2405; first compound 0.08 µM
  relative viability: 1.25
NCI-H2405; first compound 0.253 µM
  relative viability: 1.02
NCI-H2405; first compound 0.8 µM
  relative viability: 0.972
NCI-H2405; first compound 2.53 µM
  relative viability: 1.1
LC-2-ad; first compound 0.08 µM
  relative viability: 0.886
LC-2-ad; first compound 0.253 µM
  relative viability: 0.749
LC-2-ad; first compound 0.8 µM
  relative viability: 0.954
LC-2-ad; first compound 2.53 µM
  relative viability: 0.862
NCI-H647; first compound 0.08 µM
  relative viability: 0.91
NCI-H647; first compound 0.253 µM
  relative viability: 0.854
NCI-H647; first compound 0.8 µM
  relative viability: 0.987
NCI-H647; first compound 2.53 µM
  relative viability: 0.921
NCI-H1437; first compound 0.08 µM
  relative viability: 0.938
NCI-H1437; first compound 0.253 µM
  relative viability: 0.709
NCI-H1437; first compound 0.8 µM
  relative viability: 0.772
NCI-H1437; first compound 2.53 µM
  relative viability: 0.639
BEN; first compound 0.08 µM
  relative viability: 0.656
BEN; first compound 0.253 µM
  relative viability: 0.547
BEN; first compound 0.8 µM
  relative viability: 0.584
BEN; first compound 2.53 µM
  relative viability: 0.435
NCI-H2170; first compound 0.08 µM
  relative viability: 0.259
NCI-H2170; first compound 0.253 µM
  relative viability: 0.263
NCI-H2170; first compound 0.8 µM
  relative viability: 0.267
NCI-H2170; first compound 2.53 µM
  relative viability: 0.261
SK-MES-1; first compound 0.08 µM
  relative viability: 0.499
SK-MES-1; first compound 0.253 µM
  relative viability: 0.389
SK-MES-1; first compound 0.8 µM
  relative viability: 0.424
SK-MES-1; first compound 2.53 µM
  relative viability: 0.406
EKVX; first compound 0.08 µM
  relative viability: 0.193
EKVX; first compound 0.253 µM
  relative viability: 0.181
EKVX; first compound 0.8 µM
  relative viability: 0.162
EKVX; first compound 2.53 µM
  relative viability: 0.125
NCI-H1395; first compound 0.08 µM
  relative viability: 0.976
NCI-H1395; first compound 0.253 µM
  relative viability: 0.919
NCI-H1395; first compound 0.8 µM
  relative viability: 0.985
NCI-H1395; first compound 2.53 µM
  relative viability: 1.01
SK-LU-1; first compound 0.08 µM
  relative viability: 0.858
SK-LU-1; first compound 0.253 µM
  relative viability: 0.845
SK-LU-1; first compound 0.8 µM
  relative viability: 0.863
SK-LU-1; first compound 2.53 µM
  relative viability: 0.906
NCI-H2228; first compound 0.08 µM
  relative viability: 1.03
NCI-H2228; first compound 0.253 µM
  relative viability: 0.922
NCI-H2228; first compound 0.8 µM
  relative viability: 0.848
NCI-H2228; first compound 2.53 µM
  relative viability: 0.928
NCI-H596; first compound 0.08 µM
  relative viability: 1.21
NCI-H596; first compound 0.253 µM
  relative viability: 1.12
NCI-H596; first compound 0.8 µM
  relative viability: 1.1
NCI-H596; first compound 2.53 µM
  relative viability: 0.656
HCC-366; first compound 0.08 µM
  relative viability: 1.23
HCC-366; first compound 0.253 µM
  relative viability: 0.861
HCC-366; first compound 0.8 µM
  relative viability: 1.01
HCC-366; first compound 2.53 µM
  relative viability: 0.96
NCI-H1734; first compound 0.08 µM
  relative viability: 1.34
NCI-H1734; first compound 0.253 µM
  relative viability: 0.9
NCI-H1734; first compound 0.8 µM
  relative viability: 0.814
NCI-H1734; first compound 2.53 µM
  relative viability: 0.986
HARA; first compound 0.08 µM
  relative viability: 0.73
HARA; first compound 0.253 µM
  relative viability: 0.419
HARA; first compound 0.8 µM
  relative viability: 0.402
HARA; first compound 2.53 µM
  relative viability: 0.606
NCI-H1792; first compound 0.08 µM
  relative viability: 1.14
NCI-H1792; first compound 0.253 µM
  relative viability: 0.523
NCI-H1792; first compound 0.8 µM
  relative viability: 0.805
NCI-H1792; first compound 2.53 µM
  relative viability: 0.806

— the supplement of paper PMC10307832
